Among the data in PubChem BioAssay (NCI) are GI50 and TGI values, retold here.

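Dose response: 5 concentrations. Exposure: 48 h. Format: 96-well plates. Endpoint: linear interpolation; highest concentration if not reached. The concentration for 50% growth inhibition is given as GI50. TGI: concentration producing complete growth inhibition.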

Some test systems named below: HL-60(TB) leukemia; SNB-75 CNS; SF-295 CNS; RXF 393 renal; COLO 205 colon; MALME-3M melanoma; M14 melanoma; IGROV1 ovarian; SF-268 CNS; UO-31 renal.
What all share (assay): NCI tumour cell line growth inhibition, 48 h

In the case of `CCC[C@H](N[C@@H]1CCc2cc(F)cc(F)c2C1)C(=O)Nc1cn(C(C)(C)CNCC(C)(C)C)cn1`, the GI50 was 16.3 µM in the assay on HL-60(TB) leukemia; 3.68 µM in the assay with SNB-75 CNS; 15.4 µM in the assay with SF-295 CNS; 6.12 µM in the assay on RXF 393 renal; 12.5 µM with COLO 205 colon; 13.4 µM in the assay with MALME-3M melanoma. The GI50 was 10.5 µM in the assay on M14 melanoma, 28.6 µM in the assay with IGROV1 ovarian, 20.4 µM in the assay with SF-268 CNS and 6.33 µM in the assay with UO-31 renal. The TGI in the assay on HL-60(TB) leukemia was 43.4 µM; with SNB-75 CNS it was 64.8 µM; in the assay on SF-295 CNS it was 42.5 µM; with RXF 393 renal, 21.1 µM; in the assay on COLO 205 colon, 26.9 µM; in the assay on MALME-3M melanoma, 28.2 µM. Further, the TGI is 26.9 µM with M14 melanoma, more than 100 µM in the assay with IGROV1 ovarian, more than 100 µM in the assay with SF-268 CNS and 22.1 µM with UO-31 renal.
In the case of `Cc1c(C(=O)/C=C/c2ccc(Cl)cc2)[n+](=O)c2ccccc2n1[O-]`, the TGI stood at 35.2 µM in the assay on HL-60(TB) leukemia; 40.7 µM in the assay on SNB-75 CNS; 27.1 µM in the assay on SF-295 CNS; 17.9 µM in the assay with RXF 393 renal; 27.1 µM with COLO 205 colon; 38.1 µM with MALME-3M melanoma. For the same compound, the TGI in the assay on M14 melanoma was 31.5 µM; with IGROV1 ovarian, 39.4 µM; in the assay on SF-268 CNS it was 28.6 µM; in the assay on UO-31 renal, 29.9 µM.
For the compound `CN1CCN(c2ccc3nc(-c4cc(C(C)(C)C)c(O)c(C(C)(C)C)c4)[nH]c3c2)CC1`, the GI50 in the assay with HL-60(TB) leukemia was 2.22 µM; in the assay with SNB-75 CNS it was 1.42 µM; in the assay on SF-295 CNS it was 1.83 µM; in the assay with RXF 393 renal, 1.72 µM; in the assay with COLO 205 colon, 2.02 µM; in the assay on MALME-3M melanoma, 1.55 µM. For the same compound, the GI50 with M14 melanoma is 1.68 µM; in the assay on IGROV1 ovarian, 3.65 µM; in the assay on SF-268 CNS, 2.62 µM; in the assay on UO-31 renal, 1.7 µM. The TGI is 4.52 µM in the assay with HL-60(TB) leukemia; 3.65 µM in the assay on SNB-75 CNS; 3.66 µM in the assay with SF-295 CNS; 3.52 µM with RXF 393 renal; 4.26 µM in the assay with COLO 205 colon; 2.95 µM in the assay with MALME-3M melanoma. The TGI in the assay with M14 melanoma was found to be 3.37 µM; in the assay with IGROV1 ovarian, 12.6 µM; in the assay on SF-268 CNS it was 7.14 µM; with UO-31 renal, 3.08 µM.
Take `Cc1ccc(NC(=O)/C(CC(=O)c2c[n+](=O)c3ccccc3n2O)=N\NC(=O)C[n+]2ccccc2)cc1`: the TGI in the assay on HL-60(TB) leukemia, in the assay on SNB-75 CNS, in the assay on SF-295 CNS, in the assay with RXF 393 renal, with COLO 205 colon and in the assay on MALME-3M melanoma was more than 100 µM in each case. In addition, the TGI in the assay with M14 melanoma, in the assay on IGROV1 ovarian, in the assay with SF-268 CNS and with UO-31 renal was more than 100 µM each time.
Consider `CC(c1ccc(Br)cc1)C(C(=O)O)C(=O)O` (stereo not given), for which the TGI in the assay on HL-60(TB) leukemia, with SNB-75 CNS, with SF-295 CNS, in the assay with RXF 393 renal, in the assay on COLO 205 colon and in the assay on MALME-3M melanoma was more than 100 µM in each case. Further, the TGI with M14 melanoma, with IGROV1 ovarian, in the assay with SF-268 CNS and in the assay with UO-31 renal was more than 100 µM each time.
Turning to `CCC(Sc1nnc2c3ccccc3n(CC)c2n1)C(=O)Nc1ccccc1OC` (stereo not given), the GI50 in the assay with HL-60(TB) leukemia is 3.02 µM; in the assay on SNB-75 CNS, 10.8 µM; in the assay with SF-295 CNS, more than 100 µM; in the assay with RXF 393 renal, 64 µM; with COLO 205 colon it was more than 100 µM; with MALME-3M melanoma, more than 100 µM. For the same compound, the GI50 is more than 100 µM in the assay with M14 melanoma, more than 93.8 µM in the assay with IGROV1 ovarian, more than 100 µM in the assay with SF-268 CNS and 2.12 µM in the assay on UO-31 renal. In addition, the TGI is 6.91 µM in the assay on HL-60(TB) leukemia; more than 100 µM with SNB-75 CNS; more than 100 µM with SF-295 CNS; more than 100 µM with RXF 393 renal; more than 100 µM with COLO 205 colon; more than 100 µM with MALME-3M melanoma. For the same compound, the TGI was more than 100 µM in the assay on M14 melanoma, more than 100 µM in the assay on IGROV1 ovarian, more than 100 µM in the assay on SF-268 CNS and 6.65 µM in the assay with UO-31 renal.
For the compound `CCCCCCCCCCCCCCCC(=O)OCC(O)C1OC(=O)C(O)=C1O` (stereo not given), the TGI in the assay with HL-60(TB) leukemia is 65.9 µM; in the assay with SNB-75 CNS it was 46 µM; in the assay on SF-295 CNS, 40.4 µM; with RXF 393 renal, 86.8 µM; in the assay on COLO 205 colon, more than 100 µM; in the assay with MALME-3M melanoma, more than 100 µM. For the same compound, the TGI in the assay with M14 melanoma is 36.2 µM; with IGROV1 ovarian it was 84.5 µM; in the assay with SF-268 CNS, 60.4 µM; with UO-31 renal, 59.9 µM.
With `CC(=O)OC1COC(S[As](C)C)C(OC(C)=O)C1OC(C)=O` (stereo not given), the GI50 is less than 0.0158 µM in the assay on HL-60(TB) leukemia; 3.49 µM with SNB-75 CNS; 2.19 µM with SF-295 CNS; 0.338 µM in the assay on RXF 393 renal; 0.575 µM in the assay on COLO 205 colon; 0.0159 µM in the assay with MALME-3M melanoma. Further, the GI50 in the assay with M14 melanoma is less than 0.0419 µM; with IGROV1 ovarian it was 0.225 µM; in the assay with SF-268 CNS, 1.23 µM; in the assay with UO-31 renal it was 0.102 µM. Further, the TGI in the assay with HL-60(TB) leukemia is 0.072 µM; with SNB-75 CNS it was 21.7 µM; with SF-295 CNS, 8.31 µM; in the assay with RXF 393 renal it was 2.9 µM; with COLO 205 colon it was 4.96 µM; in the assay on MALME-3M melanoma, 0.287 µM. The TGI was 1.1 µM in the assay on M14 melanoma, 1.58 µM in the assay on IGROV1 ovarian, 11.6 µM in the assay on SF-268 CNS and 0.805 µM in the assay on UO-31 renal.
With `CC(ONC(=O)c1cc(C(F)(F)F)cc(C(F)(F)F)c1)C(=O)Nc1ccc(Cl)cc1` (stereo not given), the GI50 is 3.86 µM in the assay with HL-60(TB) leukemia; 15 µM in the assay with SNB-75 CNS; 3.66 µM in the assay on SF-295 CNS; 5.95 µM in the assay on RXF 393 renal; 5.32 µM in the assay with COLO 205 colon; 3.83 µM in the assay on MALME-3M melanoma. Also, the GI50 in the assay on M14 melanoma was 7.46 µM; with IGROV1 ovarian, 8.86 µM; in the assay with SF-268 CNS, 5.2 µM; in the assay with UO-31 renal it was 4.85 µM. In addition, the TGI with HL-60(TB) leukemia was determined as 28.3 µM; in the assay with SNB-75 CNS it was 70.7 µM; in the assay with SF-295 CNS, 30.9 µM; with RXF 393 renal, 35.6 µM; in the assay on COLO 205 colon it was 25.8 µM; in the assay with MALME-3M melanoma, 13.6 µM. The TGI with M14 melanoma was 25.3 µM; in the assay with IGROV1 ovarian it was more than 52 µM; in the assay with SF-268 CNS, more than 67.9 µM; in the assay with UO-31 renal, 21.5 µM.
